The record followed here is article PMC9291687.

One data set concerns prostate cancer (PC-3). Put plainly: MTT antiproliferative assay, PC-3. As to conditions: for inhibition at 100 µM / IC50: Homo sapiens; for inhibition at 100 µM: read-out: Growth inhibition (%) PC-3; for Growth inhibition (%) PC-3: 100 μM, MTT; for IC50: read-out: IC50 PC-3. (In general: Tetrazolium dyes change colour on reduction, which living cells bring about.)
The test system of a further data set is lung cancer (A-549). The data set can be described thus: MTT antiproliferative assay, A-549. Conditions: for inhibition at 100 µM / IC50: Homo sapiens; for inhibition at 100 µM: A549, read-out: Growth inhibition (%) A549; for Growth inhibition (%) A549: 100 μM, MTT.
For a further data set, the system named is breast cancer (MCF-7). Put plainly: MTT antiproliferative assay, MCF-7. Conditions: for inhibition at 100 µM: MCF7, read-out: Growth inhibition (%) MCF-7; for Growth inhibition (%) MCF-7: 100 μM, MTT.
Another data set concerns colon cancer (HCT-116). The data set can be described thus: MTT antiproliferative assay, HCT-116. As to conditions: for inhibition at 100 µM / IC50: Homo sapiens; for inhibition at 100 µM: HCT-116, read-out: Growth inhibition (%) HCT-116; for Growth inhibition (%) HCT-116: 100 μM; for Growth inhibition (%) HCT-116 / Cytotoxic activity against HCT-116: MTT; for IC50: HCT-116, read-out: IC50 HCT-116.

The next data set has as its system caspase-3 in PC-3 cells. Put plainly: Caspase-3 determination (ELISA). The data set is classed as cell-based, human. As to conditions: 24 h treatment, 8a at 3.04 µM, control 84.24, mean ± SEM. On the technique in general: An ELISA detects its analyte on a solid surface through an enzyme-linked reagent.
A further data set deals with EGFR^T790M (Homo sapiens, UniProt P00533, T790M). The data set can be described thus: EGFRT790M kinase inhibitory assay (HTRF). For orientation: TR-FRET usually uses a lanthanide donor and a delayed reading to cut background.
Chain of EGFR^T790M (P00533 25-1210 T790M): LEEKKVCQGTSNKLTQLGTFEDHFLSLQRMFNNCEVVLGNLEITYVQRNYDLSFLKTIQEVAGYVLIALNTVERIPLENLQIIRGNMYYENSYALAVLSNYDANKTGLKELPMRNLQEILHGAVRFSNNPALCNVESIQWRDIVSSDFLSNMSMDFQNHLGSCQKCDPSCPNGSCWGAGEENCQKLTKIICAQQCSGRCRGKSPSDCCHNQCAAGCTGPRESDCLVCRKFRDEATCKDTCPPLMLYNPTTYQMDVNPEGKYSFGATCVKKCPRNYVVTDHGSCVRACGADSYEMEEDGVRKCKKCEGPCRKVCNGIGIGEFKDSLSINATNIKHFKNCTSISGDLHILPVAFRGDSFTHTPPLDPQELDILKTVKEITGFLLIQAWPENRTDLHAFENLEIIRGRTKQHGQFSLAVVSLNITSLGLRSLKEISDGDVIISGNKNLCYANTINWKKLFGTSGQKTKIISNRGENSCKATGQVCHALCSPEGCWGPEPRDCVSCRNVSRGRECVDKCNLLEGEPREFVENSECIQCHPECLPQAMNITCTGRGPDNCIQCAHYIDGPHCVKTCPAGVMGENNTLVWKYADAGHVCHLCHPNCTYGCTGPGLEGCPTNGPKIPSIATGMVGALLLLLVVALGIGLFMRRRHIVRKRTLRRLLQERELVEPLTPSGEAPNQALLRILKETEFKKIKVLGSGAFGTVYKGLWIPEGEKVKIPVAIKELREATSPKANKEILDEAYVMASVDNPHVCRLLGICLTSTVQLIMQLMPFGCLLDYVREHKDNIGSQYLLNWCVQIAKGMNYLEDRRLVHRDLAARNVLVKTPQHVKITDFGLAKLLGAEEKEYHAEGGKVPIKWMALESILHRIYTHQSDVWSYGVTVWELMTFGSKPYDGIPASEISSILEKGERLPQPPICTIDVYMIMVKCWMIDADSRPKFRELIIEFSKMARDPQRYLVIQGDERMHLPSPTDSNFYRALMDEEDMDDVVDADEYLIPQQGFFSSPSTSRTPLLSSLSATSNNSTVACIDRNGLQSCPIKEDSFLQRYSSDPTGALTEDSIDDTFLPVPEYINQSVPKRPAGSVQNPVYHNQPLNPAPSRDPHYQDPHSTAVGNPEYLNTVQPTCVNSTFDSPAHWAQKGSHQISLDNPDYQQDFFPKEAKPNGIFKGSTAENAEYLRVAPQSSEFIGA

Read-outs that look alike come from different tables or passages of the source.

Experimental for EGFR^T790M: In vitro EGFR inhibitory activity was assessed using Homogeneous time-resolved fluorescence (HTRF) assay[64] as described in Supplementary data.
The IC50 values were calculated using the nonlinear regression fitting models (Graph Pad, Prism Version 5).
EGFRWT and EGFRT790M kinase inhibitory assay
Homogeneous time resolved fluorescence (HTRF) assay was applied in this test.
EGFRWT, EGFRT790M (Sigma). firstly, the EGFRWT and/or EGFRT790M and their substrates were incubated with the tested compounds in enzymatic buffer for 5 min.
into the reaction mixture to allow starting the enzymatic reaction. The assay was conducted for 30 min at room temperature. The reaction was stopped by addition of detection reagents which contain
GraphPad Prism 5.0. Three independent experiments were performed for each concentration.
Experimental for breast cancer (MCF-7): (§1) Preliminary screening against the cancer cell lines was performed, using doxorubicin as a reference drug at doses of 100 μM.
(§2) In vitro cytotoxicity was carried out using MTT assay protocol[63] as described in Supplementary data.
(§3) proliferative activity was assessed quantitatively as follows;
(§4) Human cancer cell lines were dropped in 96-well plates at a density of 3-8 × 10^3 cells/well.
(§5) growth medium was exchanged with 0.1 ml of fresh medium containing graded concentrations of the test compounds to be or equal DMSO and incubated for two days. Then 10 μl MTT solution (0.5 mg/ml) was added to each well, and the cells were incubated for additional 4 h. The crystals of MTT-formazan were dissolved in 100 μl of DMSO; the absorbance of each well was measured at 490 nm using an automatic ELISA reader system (TECAN, CHE). The IC50 values were calculated using the nonlinear regression fitting models (Graph Pad, Prism Version 5). The data represented the mean of three independent experiments in triplicate and were expressed as means
(§6) The results were expressed as growth inhibitory concentration (IC50) values and
Experimental for colon cancer (HCT-116): as §1, §2, §3, §4, §5, §6
Experimental for lung cancer (A-549): as §1, §2, §3, §4, §5, §6
Experimental for prostate cancer (PC-3): as §1, §2, §3, §4, §5, §6

`COc1cc(-c2cc(-c3ccc(Cl)cc3)nc3nc4[nH]c5ccccc5c(=O)n4c(=O)c23)cc(OC)c1OC` [Compound 8c, 2–(4-Chlorophenyl)-4–(3,4,5-trimethoxyphenyl)-5H-pyrido [2',3':4,5] pyrimido[2,1-b]quinazoline-5,7(12H)-dione]: the melting point was less than 300 °C. Also, the inhibition at 100 µM in the data set with prostate cancer (PC-3) was 17%. In addition, the inhibition at 100 µM in the data set on lung cancer (A-549) was 8%. Moreover, the inhibition at 100 µM in the data set with breast cancer (MCF-7) (Homo sapiens) is 21%. Besides, in the data set with colon cancer (HCT-116), the inhibition at 100 µM was 9%.
Consider “3-Amino-8-(p-Tolyl)-6–(3,4,5-trimethoxyphenyl)-2,3-dihydropyrido[2,3-d][1, 2, 4]triazolo[4,3-a]pyrimidin-5(1H)-one [Compound 11e]”, for which the “Growth inhibition (%) PC-3” value in the data set on prostate cancer (PC-3) was determined as 22%. In the data set with lung cancer (A-549), the “Growth inhibition (%) A549” value is 30%. In the data set with breast cancer (MCF-7), the “Growth inhibition (%) MCF-7” value worked out at 23%. Moreover, the “Growth inhibition (%) HCT-116” value with colon cancer (HCT-116) is listed as 6%.
As for `COc1ccc(-c2cc(-c3ccc(C)cc3)nc3nc4[nH]nc(-c5ccccc5)n4c(=O)c23)cc1` [Compound 12b, 6-(4-Methoxyphenyl)-3-phenyl-8-(p-tolyl)pyrido[2,3-d][1,2, 4]triazolo[4,3-a]pyrimidin-5(1H)-one], the melting point is 325 to 327 °C. For the same molecule, the inhibition at 100 µM in the data set with prostate cancer (PC-3) was found to be 36%. In the data set with lung cancer (A-549), the inhibition at 100 µM was found to be 33%. Also, in the data set with breast cancer (MCF-7) (Homo sapiens), the inhibition at 100 µM was found to be 54%. In the data set on colon cancer (HCT-116), the inhibition at 100 µM is 56%, the IC50 stood at 86.3 ± 2.2 µM and the “Cytotoxic activity against HCT-116” value is recorded as “mild cytotoxic activity”.
Consider `COc1cc(-c2cc(-c3ccc(C)cc3)nc3nc4[nH]nc(-c5ccccc5)n4c(=O)c23)cc(OC)c1OC` [Compound 12d, 3-Phenyl-8-(p-tolyl)-6–(3,4,5-trimethoxyphenyl)pyrido[2,3-d][1,2, 4]triazolo [4,3-a]pyrimidin-5(1H)-one], for which the melting point lay within 322 to 324 °C. Besides, in the data set with prostate cancer (PC-3), the inhibition at 100 µM is 14%. Moreover, the inhibition at 100 µM in the data set with lung cancer (A-549) is 4%. Besides, the inhibition at 100 µM with breast cancer (MCF-7) (Homo sapiens) is 15%. In addition, in the data set with colon cancer (HCT-116), the inhibition at 100 µM stood at 5%.
With “3-Amino-6–(4-methoxyphenyl)-8-(p-tolyl)-2,3-dihydropyrido[2,3-d][1, 2, 4] triazolo[4,3-a]pyrimidin-5(1H)-one [Compound 11c]”, the “Growth inhibition (%) PC-3” value with prostate cancer (PC-3) was found to be 28%. Further, the “Growth inhibition (%) A549” value in the data set on lung cancer (A-549) is on record as 26%. In addition, in the data set with breast cancer (MCF-7), the “Growth inhibition (%) MCF-7” value amounted to 23%. The “Growth inhibition (%) HCT-116” value in the data set on colon cancer (HCT-116) was 3%.
The matching figures for “3-Amino-8–(4-chlorophenyl)-6–(3,4,5-trimethoxyphenyl) -2,3dihydropyrido[2,3-d][1, 2, 4]triazolo[4,3-a] pyrimidin-5(1H)-one [Compound 11d]”: 20%, 5%, 37% and 3%.
`COc1ccc(-c2cc(-c3ccc(C)cc3)nc3nc4[nH][nH]c(=O)n4c(=O)c23)cc1` [Compound 10b, 6-(4-Methoxyphenyl)-8-(p-tolyl)-1,2-dihydropyrido[2,3-d][1,2, 4]triazolo[4,3-a]pyrimidine-3,5-dione] gave a melting point of 366 to 368 °C. Further, the inhibition at 100 µM with prostate cancer (PC-3) worked out at 15%. Further, the inhibition at 100 µM in the data set with lung cancer (A-549) was determined as 7%. Moreover, the inhibition at 100 µM in the data set with breast cancer (MCF-7) (Homo sapiens) turned out to be 4%. In the data set with colon cancer (HCT-116), the inhibition at 100 µM was 14%.
`COc1cccc2c1C(=O)c1c(O)c3c(c(O)c1C2=O)C[C@@](O)(C(=O)CO)C[C@@H]3O[C@H]1C[C@H](N)[C@H](O)[C@H](C)O1` [Doxorubicin, reference compound]: the inhibition at 100 µM in the data set with prostate cancer (PC-3), in the data set with lung cancer (A-549), in the data set on breast cancer (MCF-7) (Homo sapiens) and in the data set with colon cancer (HCT-116) was 100% throughout.
Consider `Cc1ccc(-c2cc(-c3ccc(Cl)cc3)nc3nc4[nH][nH]c(=O)n4c(=O)c23)cc1` [Compound 10a, 8-(4-Chlorophenyl)-6-(p-tolyl)-1,2-dihydropyrido[2,3-d][1,2, 4]triazolo[4,3-a]pyrimidine-3,5-dione], for which the melting point was in the range of 347 to 349 °C. In addition, the inhibition at 100 µM in the data set with prostate cancer (PC-3) came out at 29%. Moreover, in the data set with lung cancer (A-549), the inhibition at 100 µM came out at 17%. Also, the inhibition at 100 µM with breast cancer (MCF-7) (Homo sapiens) was determined as 41%. Further, the inhibition at 100 µM with colon cancer (HCT-116) was 21%.
Turning to `CN[C@@H]1C[C@H]2O[C@@](C)([C@@H]1OC)n1c3ccccc3c3c4c(c5c6ccccc6n2c5c31)C(=O)NC4` [Staurosporine, reference compound], the figures for the Caspase-3 level in the data set on caspase-3 in PC-3 cells and in the data set with caspase-3 in PC-3 cells (listed as staurosporine) were 413.1 ± 11.66 pg/mL and 413.1 pg/mL, respectively.
In turn, `COc1cc(-c2cc(-c3ccc(C)cc3)nc3nc4[nH][nH]c(=O)n4c(=O)c23)cc(OC)c1OC` [Compound 10d, 8-(p-Tolyl)-6–(3,4,5-trimethoxyphenyl)-1,2-dihydropyrido[2,3-d][1,2, 4]triazolo [4,3-a]pyrimidine-3,5-dione] showed a melting point of 391 to 393 °C. Also, in the data set with prostate cancer (PC-3), the inhibition at 100 µM turned out to be 8%. Besides, the inhibition at 100 µM in the data set on lung cancer (A-549) was 2%. The inhibition at 100 µM with breast cancer (MCF-7) (Homo sapiens) came to 5%. Moreover, the inhibition at 100 µM in the data set on colon cancer (HCT-116) was 5%.
As for “3-Amino-8–(4-chlorophenyl)-6–(2,4-dichlorophenyl)-10,10a-dihydropyrido [2,3-d][1, 2, 4]triazolo[4,3-a]pyrimidin-5(1H)-one [Compound 11a]”, the “Growth inhibition (%) PC-3” value with prostate cancer (PC-3) was 30%. Besides, in the data set with lung cancer (A-549), the “Growth inhibition (%) A549” value was 2%. The “Growth inhibition (%) MCF-7” value with breast cancer (MCF-7) worked out at 7%. Besides, in the data set with colon cancer (HCT-116), the “Growth inhibition (%) HCT-116” value turned out to be 9%.
For `Cc1ccc(-c2cc(-c3ccc(Cl)cc3)nc3nc4[nH]nc(-c5ccccc5)n4c(=O)c23)cc1` [Compound 12a, 8–(4-Chlorophenyl)-3-phenyl-6-(p-tolyl)pyrido[2,3-d][1,2, 4]triazolo[4,3-a]pyrimidin-5(1H)-one], the melting point was in the range of 315 to 317 °C. Besides, the inhibition at 100 µM with prostate cancer (PC-3) was found to be 28%. Also, in the data set on lung cancer (A-549), the inhibition at 100 µM turned out to be 41%. In addition, the inhibition at 100 µM with breast cancer (MCF-7) (Homo sapiens) stood at 45%. In addition, the inhibition at 100 µM with colon cancer (HCT-116) stood at 35%.
The matching figures for `O=c1[nH]c(=S)[nH]c2nc(-c3ccc(Cl)cc3)cc(-c3ccc(Cl)cc3Cl)c12` [Compound 7a, 7–(4-Chlorophenyl)-5–(2,4-dichlorophenyl)-2-thioxo-2,3-dihydropyrido [2,3-d]pyrimidin-4(1H)-one]: 318 to 320 °C, 12%, 14%, 34% and 18%.
As for `COc1cc(-c2cc(-c3ccc(Cl)cc3)nc3nc4[nH][nH]c(=O)n4c(=O)c23)cc(OC)c1OC` [Compound 10c, 8-(4-Chlorophenyl)-6–(3,4,5-trimethoxyphenyl)-1,2-dihydropyrido[2,3-d][1,2, 4]triazolo[4,3-a]pyrimidine-3,5-dione], the melting point lay in the range of 367 to 369 °C. For the same molecule, in the data set on prostate cancer (PC-3), the inhibition at 100 µM was 52%. Moreover, the inhibition at 100 µM in the data set on lung cancer (A-549) is 9%. Besides, in the data set on breast cancer (MCF-7) (Homo sapiens), the inhibition at 100 µM came out at 8%. The inhibition at 100 µM in the data set on colon cancer (HCT-116) stood at 23%.
As for `COc1ccc(-c2cc(-c3ccc(C)cc3)nc3nc4[nH]c5ccccc5c(=O)n4c(=O)c23)cc1` [Compound 8b, 4–(4-Methoxyphenyl)-2-(p-tolyl)-5H-pyrido[2',3':4,5] pyrimido[2,1-b] quinazoline-5,7(12H)-dione], the melting point was more than 300 °C. Further, in the data set with prostate cancer (PC-3), the inhibition at 100 µM came out at 96% and the IC50 worked out at 18 ± 2.3 µM. The inhibition at 100 µM with lung cancer (A-549) was 94%. Moreover, the half-inhibitory concentration (IC50) with lung cancer (A-549) (A549, read-out: IC50 A-549, MTT, mean of at least three experiments) stood at 16 µM. Besides, the inhibition at 100 µM in the data set with breast cancer (MCF-7) (Homo sapiens) was found to be 9%. In the data set on colon cancer (HCT-116), the inhibition at 100 µM worked out at 67%, the IC50 came to 26 ± 1.3 µM and the “Cytotoxic activity against HCT-116” value was “mild cytotoxic activity”. Also, the IC50 against EGFR^T790M stood at 0.29 µM.
Turning to `C#Cc1cccc(Nc2ncnc3cc(OCCOC)c(OCCOC)cc23)c1` [Erlotinib, reference compound], the IC50 in the data set on prostate cancer (PC-3) was 11.1 ± 1.07 µM; with lung cancer (A-549) (A549, read-out: IC50 A-549) it was 6.53 ± 0.82 µM; with breast cancer (MCF-7) (Homo sapiens, MCF7, read-out: IC50 MCF-7), 4.21 ± 0.62 µM.
Turning to “3-Amino-8–(4-chlorophenyl)-6-(p-tolyl)-2,3-dihydropyrido[2,3-d][1, 2, 4] triazolo[4,3-a]pyrimidin-5(1H)-one [Compound 11b]”, in the data set with prostate cancer (PC-3), the “Growth inhibition (%) PC-3” value was found to be 43%. The “Growth inhibition (%) A549” value with lung cancer (A-549) was 28%. For the same molecule, the “Growth inhibition (%) MCF-7” value with breast cancer (MCF-7) worked out at 29%. Moreover, the “Growth inhibition (%) HCT-116” value in the data set on colon cancer (HCT-116) turned out to be 15%.
On to `COc1cc(-c2cc(-c3ccc(Cl)cc3)nc3nc4[nH]nc(-c5ccccc5)n4c(=O)c23)cc(OC)c1OC` [Compound 12c, 8-(4-Chlorophenyl)-3-phenyl-6–(3,4,5-trimethoxyphenyl)pyrido[2,3-d][1,2, 4]triazolo[4,3-a]pyrimidin-5(1H)-one], for which the melting point was in the range of 313 to 315 °C. Besides, in the data set on prostate cancer (PC-3), the inhibition at 100 µM amounted to 30%. The inhibition at 100 µM with lung cancer (A-549) was found to be 22%. Moreover, the inhibition at 100 µM in the data set on breast cancer (MCF-7) (Homo sapiens) was found to be 55%. For the same molecule, in the data set on colon cancer (HCT-116), the inhibition at 100 µM turned out to be 33%.

In general, melting point refers to the temperature, or range, at which the solid turns liquid. A word on the inhibition: it is the percentage by which the read-out fell short of the control. What is called IC50 is the concentration at which inhibition is half-maximal.
